Test results taken from publication PMC9238271, “The quorum sensing peptide EntF* promotes colorectal cancer metastasis in mice: a new factor in the host-microbiome interaction” (BMC Biology, 2022).

Legend:
[1] = tested on: E-cadherin expression in HCT-116 cells; assay: Western blot of E-cadherin expression, CXCR4-negative HCT-116 cells; assay type: cell-based
Method: (§1) HCT-8, HT-29, and HT-116 cells were grown in DMEM medium supplied with 10% fetal bovine serum (FBS) and 1% penicillin-streptomycin. Caco-2 cells were grown in DMEM medium supplied with 10% FBS, 1% non-essential amino acid NEAA), and 1% penicillin-streptomycin. Cells were cultured at 37 °C and 5% CO2. As cells reached confluency, they were detached using 0.25% Trypsin-EDTA.
For Western blot analyses, HCT-8 (n = 15), HCT-116 (n = 12), Caco-2 (n = 6), and HT-29 (n = 12) cells were seeded in 6-well plates at a density of 1 × 10^6 cells/well. Twenty-four hours after seeding, all cell lines were treated with 1 μM EntF* or a placebo solution. HCT-8 cells were also tested for responsiveness to 1 μM EntF* synthetic alanine-derived analogs. For antagonist activity analysis, HCT-8 cells were treated with 1 μM Nef-M1 or 1 μM EntF*A1 alone or in combination with 500 nM EntF*. After 24 h, cells were detached from the surface and lysed in RIPA buffer (Thermo Scientific). Protein concentration was determined using the modified Lowry protein assay kit (Thermo Scientific), according to the manufacturer’s instructions. Protein samples were diluted to the same concentration (4 μg/μL) with water and diluted again 1:1 using 2x Laemmli buffer. After that, samples were boiled for 5 min at 95 °C to denature proteins and centrifuged for 5 min at 16,000g; supernatants were used for Western blot analyses. Equal amounts of total protein (20 μg/lane) were separated by SDS-PAGE on an Any kD^TM gel (Bio-Rad ) and then transferred to a PVDF membrane. Before incubation with antibodies, non-specific binding sites on the membranes were blocked using 5% skimmed milk solution (1 h). TBS buffer with 0.05% Tween 20 was used for all washing steps. Membranes were incubated overnight at 4 °C with an anti-E-cadherin primary antibody (1/1000 dilution). An HRP-conjugated anti-rabbit antibody (1/2000 dilution, 1 h incubation) was used for chemiluminescent detection. Membranes were incubated with the detection substrate for 5 min and signal detection was performed using the ChemiDoc EZ imager and Image Lab software (Bio-Rad). Signal intensity was normalized against the total protein content in each lanes.

[2] = tested on: luciferase-transfected HCT-8/E11 cells injected into the cecal wall; assay: Orthotopic mouse model: macroscopic number of tumor nodules on the cecum; assay type: in vivo, female athymic nude mice (Swiss nu/nu)
Method: Six-week-old female athymic nude mice (Swiss nu/nu) were anesthetized, and a minimally invasive midline laparotomy was performed to localize the cecum. The cecum was then gently pulled out, and luciferase-transfected HCT-8/E11 cells (1 × 10^6 cells) in 20 μL serum-free DMEM medium with Matrigel (1:1) were injected into the cecal wall. Before implantation, cells were treated with EntF* (10^2 nM), Phr0662 (10^2 nM), vehicle (PBS), or TGFα positive control (0.1 μg mL^−1) solutions for 5 days. The cecum was then carefully placed back into the abdominal cavity and the surgical incision was closed with two layers of sutures with PDS 6-0. […] Once a week, mice were examined for tumor growth and metastases using bioluminescent imaging with the IVIS Lumina II (Perkin Elmer, Belgium) after i.p. injection with 200 μL luciferin (150 mg kg^−1). After 6 weeks, mice were euthanized using cervical dislocation, and the liver, diaphragm, lungs, cecum, duodenum, and peritoneum were macroscopically examined for the presence of tumor nodules. Liver and lung tissues were then fixed in formalin for 24 h and stored in 70% ethanol for maximum 3 days before embedding in paraffin. Next, a hematoxylin and eosin (H&E) staining was performed on 8 μm sections, and 3 sections per mouse were visualized using microscopy. Slides from tumor-bearing mice were analyzed by two blinded, independent investigators using the scoring system described in Additional file 5: Table S3. In case of differences, slides were scored by a third blinded, independent investigator for consensus.
The Kolmogorov-Smirnov test was used to assess if data obtained were normally distributed. For sample size n < 10, non-parametric tests (Mann-Whitney U test) were performed directly. Slope comparison was based on linear regression analysis. Bootstrapped medians and Hedges G-values were used to calculate the effect size when sample sizes were different between the groups. Cohen’s d values were calculated as a measure of the effect size when similar standard deviations for both groups were found, and sample sizes were the same.

[3] = Caco-2 monolayer permeability assay; assay type: in vitro ADME; conditions: Caco-2 Transwell A -> B, 1 µM EntF* apical, HBSS, LC1-MS1; average of AB1-AB6; read-out: Kapp, average
Method: To avoid the absorption of EntF* onto plasticware and glassware, all tubes and containers were coated with a BSA-based anti-adsorption solution before use.
as §1
Caco-2 cells were seeded on Transwell polycarbonate membrane filters (0.4 μm pore size, Corning, Germany) at a density of 2.6 × 10^5 cells/cm^2 and permeability tests performed as described by Hubatsch et al.. Cells were submerged with Hank’s balanced salt solution (HBSS), and transepithelial electrical resistance (TEER) was measured before and after the experiment. Peptide solution (1 μM) was added to the apical chamber, and 300 μL aliquots were taken after 30, 60, 90, and 120 min of incubation. Samples were analyzed using LC1-MS1. Linear curve fitting was used to calculate the apparent permeability coefficient (Papp).
EntF* was detected and quantified on a Waters Acquity® UPLC H-class system, connected to a Waters Xevo™ TQ-S triple quadrupole mass spectrometer with electrospray ionization (operated in positive ionization mode). Autosampler tray and column oven were kept at 10 ± 5 °C and 60 ± 5 °C, respectively. Chromatographic separation was achieved on a Waters Acquity® UPLC BEH Peptide C18 column (300 Å, 1.7 μm, 2.1 mm × 100 mm). The mobile phases consisted of 93/2/5 water/acetonitrile/DMSO (V/V/V) containing 0.1% formic acid (mobile phase A) and 2/93/5 water/acetonitrile/DMSO (V/V/V) containing 0.1% formic acid (mobile phase B), and the flow rate was set to 0.5 mL/min. A 10-μL aliquot from each sample was injected. The gradient program started with 80% of mobile phase A for 1 min, followed by a linear gradient to 40% of mobile phase A for 3.5 min. Gradient was then changed to 14.2% mobile phase A at 5 min, followed by a 1 min equilibration, before starting conditions were applied. EntF* retention time was between 4.25 and 4.45 min.

## CC(C)C[C@@H]1NC(=O)[C@H](CO)NC(=O)[C@H](Cc2ccccc2)NC(=O)[C@H](C(C)C)NC(=O)[C@@H](NC(=O)[C@H](CCC(=O)O)NC(=O)[C@@H](NC(=O)[C@H](CC(C)C)NC(=O)[C@H](CC(N)=O)NC(=O)[C@@H](N)CO)C(C)C)CSSC[C@@H](C(=O)N[C@@H](CC(N)=O)C(=O)O)NC(=O)[C@H](CCCCN)NC(=O)[C@H](CCCCN)NC(=O)[C@H](Cc2ccccc2)NC1=O (single isomer, unassigned) [EntF*]
[1]; CXCR4-negative cells, 24 h, n = 12
  effect on E-cadherin expression in HCT-116 cells: no decrease
[1]; HCT-116 cells, average of n = 12
  Relative E-cadherin level: 103.8
[2]; after a 6-week treatment, compared to the placebo group
  effect size class by Hedges' G, number of nodules in the cecum: medium
[2]; macroscopic evaluation caecum, mean of the group
  Mean amount of nodules: 11.5
[3]
  Papp A→B: 0.00367 ×10⁻⁶ cm/s
